In US12258327B2, “5-membered heteroaryl-containing aminopyridine compounds as EGFR inhibitors” (YUHAN CORPORATION, priority 2021, dated 2025):
Like-named read-outs stand apart in the source and are kept apart here.

What was measured:
[1] = target: EGFR del19/T790M/C797S (Homo sapiens, UniProt P00533, C797S/DEL746-750/T790M); assay: Biochemical EGFR kinase assay (Lance Ultra TR-FRET), triple mutant del19/T790M/C797S
Outline: (§1)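 Step 1: compound in kinase buffer, 0.003–10 μM. Step 2: kinase reaction 1 h at room temperature. Step 4: TR-FRET read at 615/665 nm; IC50 calculated.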

[2] = target: EGFR L858R/T790M/C797S (Homo sapiens, UniProt P00533, C797S/L858R/T790M); assay: Biochemical EGFR kinase assay (Lance Ultra TR-FRET), triple mutant L858R/T790M/C797S
Sequence of EGFR L858R/T790M/C797S (P00533 25-1210 T790M/C797S/L858R): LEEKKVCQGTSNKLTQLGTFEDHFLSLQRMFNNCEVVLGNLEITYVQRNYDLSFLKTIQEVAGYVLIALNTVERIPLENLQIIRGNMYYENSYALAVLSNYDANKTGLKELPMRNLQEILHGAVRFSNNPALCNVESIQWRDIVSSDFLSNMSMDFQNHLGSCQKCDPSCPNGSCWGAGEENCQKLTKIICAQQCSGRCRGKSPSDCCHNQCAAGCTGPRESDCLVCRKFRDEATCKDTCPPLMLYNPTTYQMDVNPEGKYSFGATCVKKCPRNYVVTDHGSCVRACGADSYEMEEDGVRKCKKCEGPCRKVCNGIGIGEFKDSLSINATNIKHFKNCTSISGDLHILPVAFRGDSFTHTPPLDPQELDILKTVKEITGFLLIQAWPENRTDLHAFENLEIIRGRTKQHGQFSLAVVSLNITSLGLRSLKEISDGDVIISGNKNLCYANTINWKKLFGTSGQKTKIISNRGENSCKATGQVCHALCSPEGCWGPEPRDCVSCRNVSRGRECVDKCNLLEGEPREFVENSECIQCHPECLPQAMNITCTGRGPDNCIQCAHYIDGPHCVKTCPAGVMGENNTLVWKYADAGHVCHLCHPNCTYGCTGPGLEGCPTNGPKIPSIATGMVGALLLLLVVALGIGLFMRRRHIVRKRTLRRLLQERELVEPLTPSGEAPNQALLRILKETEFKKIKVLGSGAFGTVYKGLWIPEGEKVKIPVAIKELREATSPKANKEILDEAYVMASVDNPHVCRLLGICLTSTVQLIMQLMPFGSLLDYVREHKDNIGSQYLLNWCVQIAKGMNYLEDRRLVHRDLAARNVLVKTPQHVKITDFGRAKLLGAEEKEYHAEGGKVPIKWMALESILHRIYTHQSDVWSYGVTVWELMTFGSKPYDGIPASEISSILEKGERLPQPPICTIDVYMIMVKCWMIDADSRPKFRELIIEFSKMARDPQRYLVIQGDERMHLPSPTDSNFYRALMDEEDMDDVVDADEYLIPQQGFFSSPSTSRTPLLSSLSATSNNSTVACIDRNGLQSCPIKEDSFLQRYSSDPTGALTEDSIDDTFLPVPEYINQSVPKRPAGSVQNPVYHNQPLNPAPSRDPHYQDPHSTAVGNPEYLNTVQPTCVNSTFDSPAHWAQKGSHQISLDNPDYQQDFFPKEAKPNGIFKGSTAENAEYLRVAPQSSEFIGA
Outline: as §1

[3] = target: EGFR del19/C797S (Homo sapiens, UniProt P00533, C797S/DEL746-750); assay: Biochemical EGFR kinase assay (Lance Ultra TR-FRET), double mutant del19/C797S
Sequence of EGFR del19/C797S (P00533 with tags, fused parts or gaps DEL746-750/C797S): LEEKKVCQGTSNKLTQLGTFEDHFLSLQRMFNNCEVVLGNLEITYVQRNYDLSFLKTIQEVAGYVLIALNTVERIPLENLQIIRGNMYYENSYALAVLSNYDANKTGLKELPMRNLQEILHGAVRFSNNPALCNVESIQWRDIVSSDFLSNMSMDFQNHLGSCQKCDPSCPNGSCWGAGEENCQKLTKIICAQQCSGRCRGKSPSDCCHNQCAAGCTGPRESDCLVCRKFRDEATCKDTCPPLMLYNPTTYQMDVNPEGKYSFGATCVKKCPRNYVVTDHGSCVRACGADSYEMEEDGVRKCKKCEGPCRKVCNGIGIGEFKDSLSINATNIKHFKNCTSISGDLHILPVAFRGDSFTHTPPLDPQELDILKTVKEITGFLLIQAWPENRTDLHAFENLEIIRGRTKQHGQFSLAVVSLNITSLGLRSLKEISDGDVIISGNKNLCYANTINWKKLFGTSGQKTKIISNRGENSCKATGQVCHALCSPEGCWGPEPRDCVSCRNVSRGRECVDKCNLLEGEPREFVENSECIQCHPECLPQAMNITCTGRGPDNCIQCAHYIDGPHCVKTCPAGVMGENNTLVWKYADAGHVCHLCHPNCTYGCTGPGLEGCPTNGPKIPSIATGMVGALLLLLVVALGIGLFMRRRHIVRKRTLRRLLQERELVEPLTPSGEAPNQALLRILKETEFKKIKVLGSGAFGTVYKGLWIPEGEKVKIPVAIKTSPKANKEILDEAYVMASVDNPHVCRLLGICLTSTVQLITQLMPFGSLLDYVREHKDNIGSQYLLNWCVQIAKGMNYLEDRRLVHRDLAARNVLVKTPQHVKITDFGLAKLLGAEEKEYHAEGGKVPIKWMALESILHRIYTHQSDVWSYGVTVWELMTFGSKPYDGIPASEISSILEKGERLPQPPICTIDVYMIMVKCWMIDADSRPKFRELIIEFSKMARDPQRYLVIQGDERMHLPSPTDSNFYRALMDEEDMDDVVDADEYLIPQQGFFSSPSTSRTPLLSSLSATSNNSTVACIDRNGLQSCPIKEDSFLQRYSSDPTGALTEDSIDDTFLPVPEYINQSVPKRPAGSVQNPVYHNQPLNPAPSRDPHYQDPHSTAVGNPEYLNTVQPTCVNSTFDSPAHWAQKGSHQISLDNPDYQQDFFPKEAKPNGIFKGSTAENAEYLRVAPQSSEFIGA
Outline: as §1

[4] = target: EGFR L858R/C797S (Homo sapiens, UniProt P00533, C797S/L858R); assay: Biochemical EGFR kinase assay (Lance Ultra TR-FRET), double mutant L858R/C797S
Sequence of EGFR L858R/C797S (P00533 25-1210 C797S/L858R): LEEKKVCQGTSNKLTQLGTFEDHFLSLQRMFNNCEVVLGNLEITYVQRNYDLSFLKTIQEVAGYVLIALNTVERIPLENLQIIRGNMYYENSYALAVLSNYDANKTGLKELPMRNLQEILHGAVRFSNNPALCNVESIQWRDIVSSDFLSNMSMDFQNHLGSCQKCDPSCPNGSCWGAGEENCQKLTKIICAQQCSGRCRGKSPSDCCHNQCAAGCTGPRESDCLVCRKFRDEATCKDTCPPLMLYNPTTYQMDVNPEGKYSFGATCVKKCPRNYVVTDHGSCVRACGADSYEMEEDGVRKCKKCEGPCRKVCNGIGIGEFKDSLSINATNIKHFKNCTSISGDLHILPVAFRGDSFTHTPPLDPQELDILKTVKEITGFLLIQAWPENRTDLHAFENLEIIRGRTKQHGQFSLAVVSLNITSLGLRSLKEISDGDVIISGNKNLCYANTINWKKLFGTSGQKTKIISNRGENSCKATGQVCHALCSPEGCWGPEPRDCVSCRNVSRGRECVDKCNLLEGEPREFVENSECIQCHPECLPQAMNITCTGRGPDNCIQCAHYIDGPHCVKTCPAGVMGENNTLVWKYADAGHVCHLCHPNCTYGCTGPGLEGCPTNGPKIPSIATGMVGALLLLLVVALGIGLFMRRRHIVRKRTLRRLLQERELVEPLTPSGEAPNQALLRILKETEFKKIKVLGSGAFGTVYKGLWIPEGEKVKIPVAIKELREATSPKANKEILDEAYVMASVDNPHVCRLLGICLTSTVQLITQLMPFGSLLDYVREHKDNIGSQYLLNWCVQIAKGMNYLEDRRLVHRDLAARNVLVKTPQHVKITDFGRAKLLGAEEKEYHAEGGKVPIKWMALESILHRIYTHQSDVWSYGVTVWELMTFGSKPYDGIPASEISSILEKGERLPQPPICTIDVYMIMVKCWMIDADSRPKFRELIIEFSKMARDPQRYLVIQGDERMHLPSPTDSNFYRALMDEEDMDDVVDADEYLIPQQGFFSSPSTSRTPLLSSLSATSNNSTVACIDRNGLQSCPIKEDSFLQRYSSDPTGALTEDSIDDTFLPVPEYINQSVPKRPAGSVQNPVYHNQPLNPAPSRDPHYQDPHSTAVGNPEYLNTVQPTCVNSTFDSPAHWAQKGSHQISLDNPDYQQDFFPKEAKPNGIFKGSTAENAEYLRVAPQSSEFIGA
Outline: as §1

[5] = target: EGFR wildtype (WT) (Homo sapiens, UniProt P00533); assay: Biochemical EGFR kinase assay (Lance Ultra TR-FRET), wildtype
Outline: as §1

[6] = IC50 del19/T790M/C797S (nM) 100 μM ATP, 100 μM ATP
[7] = Km ATP, read-out: IC50 del19/T790M/C797S (nM) Km ATP
[8] = IC50 L858R/T790M/C797S (nM) 100 μM ATP, 100 μM ATP
[9] = Km ATP, read-out: IC50 L858R/T790M/C797S (nM) Km ATP
[10] = IC50 del19/C797S (nM) 100 μM ATP, 100 μM ATP
[11] = Km ATP, read-out: IC50 del19/C797S (nM) Km ATP
[12] = IC50 L858R/C797S (nM) 100 μM ATP, 100 μM ATP
[13] = Km ATP, read-out: IC50 L858R/C797S (nM) Km ATP
[14] = IC50 WT (nM) 100 μM ATP, 100 μM ATP
[15] = Km ATP, read-out: IC50 WT (nM) Km ATP
[16] = Km ATP, read-out: IC50 del19/T790M/C797S, Km ATP
[17] = Km ATP, read-out: IC50 L858R/T790M/C797S, Km ATP
[18] = Km ATP, read-out: IC50 del19/C797S, Km ATP
[19] = Km ATP, read-out: IC50 L858R/C797S, Km ATP
[20] = Km ATP, read-out: IC50 WT, Km ATP

Sequence of EGFR del19/T790M/C797S (P00533 with tags, fused parts or gaps DEL746-750/T790M/C797S): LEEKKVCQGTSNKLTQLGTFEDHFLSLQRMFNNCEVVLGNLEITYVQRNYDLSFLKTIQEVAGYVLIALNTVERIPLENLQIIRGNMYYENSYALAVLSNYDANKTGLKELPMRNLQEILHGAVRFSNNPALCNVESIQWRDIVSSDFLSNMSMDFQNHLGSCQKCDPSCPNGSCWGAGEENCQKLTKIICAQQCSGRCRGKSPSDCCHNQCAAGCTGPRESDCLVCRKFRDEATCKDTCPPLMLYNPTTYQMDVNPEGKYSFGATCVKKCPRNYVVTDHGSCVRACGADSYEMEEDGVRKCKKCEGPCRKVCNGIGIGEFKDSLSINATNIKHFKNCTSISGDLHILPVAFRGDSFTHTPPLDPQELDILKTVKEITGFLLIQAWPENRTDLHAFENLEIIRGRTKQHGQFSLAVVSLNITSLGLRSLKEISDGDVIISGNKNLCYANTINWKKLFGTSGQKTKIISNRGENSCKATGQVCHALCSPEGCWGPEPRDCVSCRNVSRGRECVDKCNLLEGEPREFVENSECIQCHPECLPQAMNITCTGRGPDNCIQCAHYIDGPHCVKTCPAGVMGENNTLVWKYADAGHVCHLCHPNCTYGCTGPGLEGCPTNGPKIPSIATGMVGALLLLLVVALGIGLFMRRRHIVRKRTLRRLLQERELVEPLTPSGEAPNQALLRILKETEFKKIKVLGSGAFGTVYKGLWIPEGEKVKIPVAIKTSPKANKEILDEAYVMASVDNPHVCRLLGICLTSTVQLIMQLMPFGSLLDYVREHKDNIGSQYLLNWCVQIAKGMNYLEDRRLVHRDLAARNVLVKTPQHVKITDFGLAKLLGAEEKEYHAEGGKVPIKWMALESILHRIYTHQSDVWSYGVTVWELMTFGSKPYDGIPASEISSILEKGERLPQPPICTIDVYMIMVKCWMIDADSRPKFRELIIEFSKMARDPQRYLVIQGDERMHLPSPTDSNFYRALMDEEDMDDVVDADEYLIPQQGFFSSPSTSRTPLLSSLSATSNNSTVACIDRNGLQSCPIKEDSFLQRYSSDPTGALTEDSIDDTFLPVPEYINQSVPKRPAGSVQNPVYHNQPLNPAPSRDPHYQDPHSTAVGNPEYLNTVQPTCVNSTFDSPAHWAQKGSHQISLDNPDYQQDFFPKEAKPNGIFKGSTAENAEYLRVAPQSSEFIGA

| SMILES | IC50 [1, 6] | IC50 [1, 7] | IC50 [2, 8] | IC50 [2, 9] | IC50 [3, 10] | IC50 [3, 11] | IC50 [4, 12] | IC50 [4, 13] | IC50 [5, 14] | IC50 [5, 15] | IC50 [1, 16] | IC50 [2, 17] | IC50 [3, 18] | IC50 [4, 19] | IC50 [5, 20] | IC50 ([1]; read-out: IC50 del19/T790M/C797S (nM) 100 μM ATP, 100 μM ATP) | IC50 ([2]; read-out: IC50 L858R/T790M/C797S (nM) 100 μM ATP, 100 μM ATP) | IC50 ([3]; read-out: IC50 del19/C797S (nM) 100 μM ATP, 100 μM ATP) | IC50 ([4]; read-out: IC50 L858R/C797S (nM) 100 μM ATP, 100 μM ATP) | IC50 ([5]; read-out: IC50 WT (nM) 100 μM ATP, 100 μM ATP) |
| --- | --- | --- | --- | --- | --- | --- | --- | --- | --- | --- | --- | --- | --- | --- | --- | --- | --- | --- | --- | --- |
| CN(C)CCCn1ccc(-c2cnc(Nc3ccnc(-c4cnn(S(=O)(=O)C5CC5)c4)n3)cc2N[C@H]2CC[C@@](C)(O)CC2)n1 [Example 288, (1s,4s)-4-((2-((2-(1-(Cyclopropylsulfonyl)-1H-pyrazol-4-yl)pyrimidin-4-yl)amino)-5-(1-(3-(dimethylamino)propyl)-1H-pyrazol-3-yl)pyridin-4-yl)amino)-1-methylcyclohexan-1-ol] | 0.2 nM | – | 0.2 nM | – | 0.2 nM | – | 0.4 nM | – | 133 nM | – | – | – | – | – | – | – | – | – | – | – |
| C[C@]1(O)CC[C@@H](Nc2cc(Nc3ccnc(N4CCC[C@H](O)C4)n3)ncc2-c2ccn(C(F)F)n2)CC1 [Example 351, (S)-1-(4-((5-(1-(Difluoromethyl)-1H-pyrazol-3-yl)-4-(((1s,4R)-4-hydroxy-4-methylcyclohexyl)amino)pyridin-2-yl)amino)pyrimidin-2-yl)piperidin-3-ol] | – | – | – | – | – | – | – | – | – | – | 2.7 nM | 2.8 nM | 198 nM | 44.3 nM | 235 nM | – | – | – | – | – |
| O=S(=O)(C1CC1)n1cc(-c2nccc(Nc3cc(N[C@H]4CC[C@@H](CO)CC4)c(-c4ccn(C5CC5)n4)cn3)n2)cn1 [Example 297, ((1s,4s)-4-((5-(1-Cyclopropyl-1H-pyrazol-3-yl)-2-((2-(1-(cyclopropylsulfonyl)-1H-pyrazol-4-yl)pyrimidin-4-yl)amino)pyridin-4-yl)amino)cyclohexyl)methanol] | 0.2 nM | 0.1 nM | 0.5 nM | 0.1 nM | 0.7 nM | 0.5 nM | 3.9 nM | 0.3 nM | 582 nM | 1.6 nM | – | – | – | – | – | – | – | – | – | – |
| C[C@]1(O)CC[C@@H](Nc2cc(Nc3ccnc(N4CCC[C@@H](O)C4)n3)ncc2-c2ccn(C(F)F)n2)CC1 [Example 352, (R)-1-(4-((5-(1-(Difluoromethyl)-1H-pyrazol-3-yl)-4-(((1s,4S)-4-hydroxy-4-methylcyclohexyl)amino)pyridin-2-yl)amino)pyrimidin-2-yl)piperidin-3-ol] | – | – | – | – | – | – | – | – | – | – | 7.3 nM | 4.8 nM | 653 nM | 105 nM | 457 nM | – | – | – | – | – |
| O=C1NCCCC1Nc1cc(Nc2ccnc(-c3cnn(S(=O)(=O)C4CC4)c3)n2)ncc1-c1ccn(C(F)F)n1 (stereo not shown) [Example 38, 3-((2-((2-(1-(Cyclopropylsulfonyl)-1H-pyrazol-4-yl)pyrimidin-4-yl)amino)-5-(1-(difluoromethyl)-1H-pyrazol-3-yl)pyridin-4-yl)amino)piperidin-2-one] | 0.5 nM | 0.5 nM | 2.5 nM | 0.3 nM | 24.8 nM | 23.7 nM | 182 nM | 9.1 nM | > 10000 nM | 60.7 nM | – | – | – | – | – | – | – | – | – | – |
| O=S(=O)(C1CC1)n1cc(-c2nccc(Nc3cc(NC4CC(O)C4)c(-c4ccn(C(F)F)n4)cn3)n2)cn1 (stereo not shown) [Example 40, 3-((2-((2-(1-(Cyclopropylsulfonyl)-1H-pyrazol-4-yl)pyrimidin-4-yl)amino)-5-(1-(difluoromethyl)-1H-pyrazol-3-yl)pyridin-4-yl)amino)cyclobutan-1-ol] | 0.5 nM | 0.5 nM | 2 nM | 0.3 nM | 7.6 nM | 2.3 nM | 174 nM | 4.5 nM | > 10000 nM | 36.3 nM | – | – | – | – | – | – | – | – | – | – |

Next, values leading:

| IC50 [1, 6] | IC50 [1, 7] | IC50 [2, 8] | IC50 [2, 9] | IC50 [3, 10] | IC50 [3, 11] | IC50 [4, 12] | IC50 [4, 13] | IC50 [5, 14] | IC50 [5, 15] | IC50 [1, 16] | IC50 [2, 17] | IC50 [3, 18] | IC50 [4, 19] | IC50 [5, 20] | IC50 ([1]; read-out: IC50 del19/T790M/C797S (nM) 100 μM ATP, 100 μM ATP) | IC50 ([2]; read-out: IC50 L858R/T790M/C797S (nM) 100 μM ATP, 100 μM ATP) | IC50 ([3]; read-out: IC50 del19/C797S (nM) 100 μM ATP, 100 μM ATP) | IC50 ([4]; read-out: IC50 L858R/C797S (nM) 100 μM ATP, 100 μM ATP) | IC50 ([5]; read-out: IC50 WT (nM) 100 μM ATP, 100 μM ATP) | SMILES |
| --- | --- | --- | --- | --- | --- | --- | --- | --- | --- | --- | --- | --- | --- | --- | --- | --- | --- | --- | --- | --- |
| 3.7 nM | 4.3 nM | 1.6 nM | 1.1 nM | 6 nM | 2.1 nM | 29.1 nM | 5.2 nM | 294 nM | 7.5 nM | – | – | – | – | – | – | – | – | – | – | CN(C)C(=O)[C@H]1CC[C@@H](Nc2cc(Nc3ccnc(-c4cnn(S(=O)(=O)C5CC5)c4)n3)ncc2-c2cc(C(F)(F)F)n(C)n2)CC1 [Example 257, (1s,4s)-4-((2-((2-(1-(Cyclopropylsulfonyl)-1H-pyrazol-4-yl)pyrimidin-4-yl)amino)-5-(1-methyl-5-(trifluoromethyl)-1H-pyrazol-3-yl)pyridin-4-yl)amino)-N,N-dimethylcyclohexane-1-carboxamide] |
| 0.3 nM | 0.2 nM | 0.2 nM | 0.1 nM | 0.5 nM | 0.2 nM | 1.9 nM | 0.2 nM | 617 nM | 1.1 nM | – | – | – | – | – | – | – | – | – | – | O=S(=O)(C1CC1)n1cc(-c2nccc(Nc3cc(N[C@H]4CC[C@@H](NCCF)CC4)c(-c4cc5n(n4)CCCC5)cn3)n2)cn1 [Example 62, N^2-(2-(1-(Cyclopropylsulfonyl)-1H-pyrazol-4-yl)pyrimidin-4-yl)-N^4-((1s,4s)-4-((2-fluoroethyl)amino)cyclohexyl)-5-(4,5,6,7-tetrahydropyrazolo[1,5-a]pyridin-2-yl)pyridine-2,4-diamine] |
| 0.2 nM | 0.2 nM | 0.8 nM | 0.1 nM | 1.7 nM | 3.4 nM | 42.3 nM | 2.6 nM | > 10000 nM | 26 nM | – | – | – | – | – | – | – | – | – | – | O=S(=O)(C1CC1)n1cc(-c2nccc(Nc3cc(OC4CCC(O)CC4)c(-c4cnn(C(F)F)c4)cn3)n2)cn1 (stereo not shown) [Example 71, 4-((2-((2-(1-(Cyclopropylsulfonyl)-1H-pyrazol-4-yl)pyrimidin-4-yl)amino)-5-(1-(difluoromethyl)-1H-pyrazol-4-yl)pyridin-4-yl)oxy)cyclohexan-1-ol] |
| – | – | – | – | – | – | – | – | – | – | – | – | – | – | – | 18.8 nM | 28.7 nM | 200 nM | 278 nM | > 10000 nM | CC(C)(O)[C@H]1CC[C@@H](Nc2cc(Nc3ccnc(-c4cnn(S(=O)(=O)C5CC5)c4)n3)ncc2-c2csc(C(F)(F)F)n2)CC1 [Example 49, 2-((1s,4s)-4-((2-((2-(1-(Cyclopropylsulfonyl)-1H-pyrazol-4-yl)pyrimidin-4-yl)amino)-5-(2-(trifluoromethyl)thiazol-4-yl)pyridin-4-yl)amino)cyclohexyl)propan-2-ol] |
| 0.7 nM | – | 3.2 nM | – | 18 nM | – | 160 nM | – | > 10000 nM | – | – | – | – | – | – | – | – | – | – | – | O=S(=O)(C1CC1)n1cc(-c2nccc(Nc3cc(NC4CCC(NCCO)CC4)c(-c4csc(C(F)(F)F)n4)cn3)n2)cn1 (stereo not shown) [Example 97, 2-((4-((2-((2-(1-(Cyclopropylsulfonyl)-1H-pyrazol-4-yl)pyrimidin-4-yl)amino)-5-(2-(trifluoromethyl)thiazol-4-yl)pyridin-4-yl)amino)cyclohexyl)amino)ethan-1-ol] |
| 1.3 nM | 0.4 nM | – | 0.2 nM | 1.3 nM | 0.5 nM | 18.7 nM | 1.3 nM | > 10000 nM | 10.5 nM | – | – | – | – | – | – | – | – | – | – | O=S(=O)(C1CC1)n1cc(-c2nccc(Nc3cc(NC[C@H]4CC[C@H](O)CC4)c(-c4ccn(C(F)F)n4)cn3)n2)cn1 [Example 31, (1r,4r)-4-(((2-((2-(1-(Cyclopropylsulfonyl)-1H-pyrazol-4-yl)pyrimidin-4-yl)amino)-5-(1-(difluoromethyl)-1H-pyrazol-3-yl)pyridin-4-yl)amino)methyl)cyclohexan-1-ol] |
